In patent US10519504B2, “Methods for treatment of oncological disorders using epimetabolic shifters, multidimensional intracellular molecules, or environmental influencers” (Berg LLC, priority 2009, dated 2019):

Tests used:
[1] = test system: HK-2 cells; test: Diabetes PCR array; type: cell-based, human; conditions: HK2(H) cells, 22 mM glucose; particularly 100 μM
Protocol: The HK-2 and HASMC cells are normally maintained in culture at 5.5 mM glucose, which is a concentration that corresponds to a range considered normal in human blood. However, in order to simulate a diabetic environment, both cell lines were subsequently maintained at 22 mM glucose, which corresponds to the range observed in human blood associated with chronic hyperglycemia. The cells were subsequently allowed to propagate over 3 passages so that the intracellular regulation processes were functionally adapted to mimic a diabetic state. The choice of cell line was based on the physiologic influence of diabetes on renal dysfunction and progression to end-stage renal disease (ESRD) in addition to the progressive pathophysiology of a compromised cardiovascular function.
The Diabetes PCR array (SABiosciences) offers a screen for 84 genes simultaneously.
A stringent analysis of the Real time PCR data of the HK-2 samples on the Diabetes Arrays (Cat #PAHS-023E, SABiosciences Frederick Md.) was made to exclude all results where gene regulation was not at least a two-fold regulation over HK-2 normal untreated cells with a p value of less than 0.05.

[2] = test system: Lactate Dehydrogenase (LDH); test: Western blot, Lactate Dehydrogenase levels; type: cell-based, human
Protocol: The samples were processed and run on a 4-12% Bis-Tris Novex NuPAGE gel as described above. The gels were run, transferred and stained essentially as described above.
After transfer each blot was dried for 15-20 minutes, activated with methanol for 5 seconds, washed with water for 5 minutes, and TBST for 15 minutes. The blots were blocked for 1 hour with 5% blocking reagent in TBS-T at room temperature and then washed 3 times with TBS-T (1X−15′; 2X5′ each) and probed with the primary antibody for Lactate Dehydrogenase (abcam ab2101; polyclonal) in 5% BSA (at 1:1000 dilutions) by incubation overnight at 4 deg C. with shaking. After the overnight incubation with primary antibody for Lactate Dehydrogenase, the blots were washed 3 times with TBS-T (1X−15′; 2X5′ each) and probed with the secondary antibody (rabbit antigoat; 1:10,000 dilution) for 1 h at room temperature. After 1 h of incubation with secondary antibodies, the blots were washed 3 times with TBS-T (1X−15′; 2X5′ each) and then incubated with ECF reagent for 5 mins and then each blot scanned with 5100 Fuji Laser scanner at 25 uM resolution, 16 bit, green laser, at 400V and at 500 V. […]
The levels of LDH and PDH were determined by probing the blots successively with primary antibodies for LDH and PDH, essentially as described above. […]

COC1=C(OC)C(=O)C(C/C=C(\C)CC/C=C(\C)CC/C=C(\C)CC/C=C(\C)CC/C=C(\C)CC/C=C(\C)CC/C=C(\C)CC/C=C(\C)CC/C=C(\C)CCC=C(C)C)=C(C)C1=O [Q10, Coenzyme Q10]
CEACAM1 RNA transcript [1]: highly upregulated
LDH expression ([2]; cancer): reduced Lactate Dehydrogenase (LDH) expression in cancer
LDH expression ([2]; normal cells): minimal effect on normal cells
